{"source": "patent US7378497B2", "about": "“Potassium channels and genes encoding these potassium channels” (NeuroSearch A/S, priority 1999, dated 2008)", "key": {"[1]": {"molecular_target": "KCNQ2/KCNQ3 channels (Homo sapiens, UniProt O43525+O43526, N780T)", "sequence (O43526 1-844 isoform O43526-3 N752T, one chain of several)": "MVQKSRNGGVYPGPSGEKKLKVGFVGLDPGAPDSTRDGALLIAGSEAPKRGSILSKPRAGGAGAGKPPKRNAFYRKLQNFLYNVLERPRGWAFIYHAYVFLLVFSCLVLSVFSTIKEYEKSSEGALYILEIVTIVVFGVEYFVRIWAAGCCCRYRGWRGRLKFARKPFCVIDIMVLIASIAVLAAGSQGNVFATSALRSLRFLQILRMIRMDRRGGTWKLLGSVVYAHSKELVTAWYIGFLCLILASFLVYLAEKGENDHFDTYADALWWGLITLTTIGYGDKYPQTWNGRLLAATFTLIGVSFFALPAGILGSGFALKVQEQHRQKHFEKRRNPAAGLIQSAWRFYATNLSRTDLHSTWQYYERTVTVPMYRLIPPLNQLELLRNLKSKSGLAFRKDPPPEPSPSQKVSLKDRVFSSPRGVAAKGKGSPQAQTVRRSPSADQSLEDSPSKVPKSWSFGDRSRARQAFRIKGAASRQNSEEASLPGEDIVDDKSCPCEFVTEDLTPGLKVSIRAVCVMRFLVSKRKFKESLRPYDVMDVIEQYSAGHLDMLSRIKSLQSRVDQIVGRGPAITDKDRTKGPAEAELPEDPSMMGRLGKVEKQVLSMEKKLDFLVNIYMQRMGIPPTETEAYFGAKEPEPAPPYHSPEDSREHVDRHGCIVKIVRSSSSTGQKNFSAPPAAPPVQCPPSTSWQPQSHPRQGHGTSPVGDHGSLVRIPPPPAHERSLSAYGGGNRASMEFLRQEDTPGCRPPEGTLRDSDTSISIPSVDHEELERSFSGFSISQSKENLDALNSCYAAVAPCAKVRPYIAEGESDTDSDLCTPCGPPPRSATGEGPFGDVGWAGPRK", "details": "200 μM Linopirdine; cited from earlier work"}, "[2]": {"molecular_target": "T1, KCNQ4 (Homo sapiens, UniProt P56696, H455Q)", "T1 construct": "A complete cDNA was assembled and cloned into the oocyte expression vector PTLN; expressed in transfected cells; host or cells: Xenopus oocytes (cRNA injection)", "T1 sequence (P56696 1-695 H455Q)": "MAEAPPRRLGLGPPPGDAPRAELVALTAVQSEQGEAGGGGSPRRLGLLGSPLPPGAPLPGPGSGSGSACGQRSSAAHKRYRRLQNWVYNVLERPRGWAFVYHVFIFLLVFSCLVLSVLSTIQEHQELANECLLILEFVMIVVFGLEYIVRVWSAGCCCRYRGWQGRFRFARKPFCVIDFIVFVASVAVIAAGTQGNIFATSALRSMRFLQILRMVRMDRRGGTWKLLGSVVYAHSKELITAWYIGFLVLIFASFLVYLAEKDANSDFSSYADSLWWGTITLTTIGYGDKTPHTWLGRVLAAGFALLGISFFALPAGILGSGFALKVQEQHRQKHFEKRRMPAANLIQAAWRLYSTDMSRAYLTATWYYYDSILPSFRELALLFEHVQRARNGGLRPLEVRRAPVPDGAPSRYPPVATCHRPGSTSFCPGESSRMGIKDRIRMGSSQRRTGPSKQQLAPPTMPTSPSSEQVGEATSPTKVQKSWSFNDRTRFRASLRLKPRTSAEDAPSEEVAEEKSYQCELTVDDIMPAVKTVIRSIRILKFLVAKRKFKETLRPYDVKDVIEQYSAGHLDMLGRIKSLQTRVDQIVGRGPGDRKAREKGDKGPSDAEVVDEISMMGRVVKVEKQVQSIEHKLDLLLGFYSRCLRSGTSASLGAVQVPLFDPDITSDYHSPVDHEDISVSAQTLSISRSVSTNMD", "assay": "Two-electrode voltage clamp of KCNQ4 currents in Xenopus oocytes", "assay_type": "cell-based", "details": "200 μM Linopirdine", "experimental": "(§1) KCNQ4 was expressed in Xenopus oocytes and its activity was investigated by two-electrode voltage clamping.\n(§2) After linearization of the KCNQ4-containing PTLN vector with Hpal, capped cRNA was transcribed in vitro using the mMessage mMachine cRNA synthesis kit (Ambion). Usually 5-15 ng of cRNA were injected into Xenopus oocytes previously isolated by manual defolliculation and short collagenase treatment. In co-expression experiments cRNAs were injected at a 1:1 ratio. Oocytes were kept at 17° C. in modified Barth's solution (90 mM NaCl, 1 mM KCl, 0.41 mM CaCl2, 0.33 mM Ca(NO3)2, 0.82 mM MgSO4, 10 mM HEPES, 100 U penicillin-100 μg streptomycin/ml, pH 7.6).\n(§3) Standard two-electrode voltage-clamp measurements were performed at room temperature 2-4 days after injection using a Turbotec 05 amplifier (npi instruments, Tamm, Germany) and pClamp 5.5 software (Axon Instruments). Currents were usually recorded in ND98 solution (see Table 2). Solutions for Na^+/K^+replacement experiments were prepared from an appropriate mixture of solution KD100 (100 mM KCl) and ND100 (100 mM NaCl) to yield the stated concentrations of Na^+and K^+. Linopirdine (RBI, Natick, Mass.) was prepared as a 100 mM stock solution in DMSO and added to a final concentration of 200 μM to ND98."}, "[3]": {"molecular_target": "T2, KCNQ3/KCNQ4 (Homo sapiens, UniProt O43525+P56696, H455Q)", "T2 construct": "A complete cDNA was assembled and cloned into the oocyte expression vector PTLN; expressed in transfected cells; host or cells: Xenopus oocytes (cRNAs co-injected 1:1)", "T2 sequence (P56696 1-695 H455Q)": "T1 sequence (P56696 1-695 H455Q)", "T2 sequence (O43525 1-872)": "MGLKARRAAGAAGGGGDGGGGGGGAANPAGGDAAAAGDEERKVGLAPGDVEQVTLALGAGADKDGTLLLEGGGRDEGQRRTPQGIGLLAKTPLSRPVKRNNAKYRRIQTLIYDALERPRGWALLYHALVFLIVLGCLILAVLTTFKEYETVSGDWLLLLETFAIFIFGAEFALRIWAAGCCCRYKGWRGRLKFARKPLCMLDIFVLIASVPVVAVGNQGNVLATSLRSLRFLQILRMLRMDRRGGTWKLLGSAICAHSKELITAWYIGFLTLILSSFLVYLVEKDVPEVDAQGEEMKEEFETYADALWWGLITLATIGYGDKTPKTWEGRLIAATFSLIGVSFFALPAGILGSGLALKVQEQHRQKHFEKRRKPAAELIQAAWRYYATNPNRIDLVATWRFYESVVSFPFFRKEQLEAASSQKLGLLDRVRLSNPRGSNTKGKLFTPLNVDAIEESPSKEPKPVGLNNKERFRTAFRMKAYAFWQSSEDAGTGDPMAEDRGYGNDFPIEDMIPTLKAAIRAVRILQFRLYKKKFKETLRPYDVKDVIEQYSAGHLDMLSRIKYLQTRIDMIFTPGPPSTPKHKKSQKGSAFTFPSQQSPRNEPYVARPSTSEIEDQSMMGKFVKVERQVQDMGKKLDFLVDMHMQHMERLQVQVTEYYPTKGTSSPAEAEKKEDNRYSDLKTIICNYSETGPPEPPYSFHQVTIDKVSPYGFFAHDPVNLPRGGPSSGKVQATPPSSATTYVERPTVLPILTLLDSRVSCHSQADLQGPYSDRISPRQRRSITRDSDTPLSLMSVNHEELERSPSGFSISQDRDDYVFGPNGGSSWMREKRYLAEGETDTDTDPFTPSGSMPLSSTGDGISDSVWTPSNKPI", "assay": "Two-electrode voltage clamp of KCNQ3+KCNQ4 co-expression currents in Xenopus oocytes", "assay_type": "cell-based", "details": "200 μM Linopirdine", "experimental": "as §1, §2, §3"}}}
{"smiles": "O=C1N(c2ccccc2)c2ccccc2C1(Cc1ccncc1)Cc1ccncc1", "note": "[Linopirdine, 1,3-dihydro-1-phenyl-3,3-bis(4-pyridylmethyl)-2H-indol-2-one]", "values": [{"measurement": "inhibition of KCNQ2/KCNQ3 channels", "setting": "[1]", "value": "nearly completely inhibits"}, {"measurement": "time to steady-state inhibition of KCNQ4 currents after addition", "setting": "[2]", "value": "~1", "unit": "min"}, {"measurement": "inhibition at 200 µM", "setting": "[2]; currents measured at +40 mV, Xenopus oocytes, ND98, read-out: inhibition of KCNQ4 current", "value": "~30", "unit": "%"}, {"measurement": "time to steady-state inhibition of KCNQ3+KCNQ4 currents after addition", "setting": "[3]", "value": "~3", "unit": "min"}, {"measurement": "inhibition of KCNQ3/KCNQ4 co-expression current", "setting": "[3]; currents measured at +40 mV, Xenopus oocytes, ND98", "value": "≈ 75%"}]}
